These molecules were tested against T1, human Npt2a (Homo sapiens, UniProt Q06495) (assay: Npt2a activity cell based assay, membrane potential dye, CHO T-REx hNpt2a cells). Conditions: doxycycline-induced, depolarization by sodium phosphate influx, average or median values if tested more than once.
T1 construct: expressed in transfected cells
T1 sequence (Q06495 1-639): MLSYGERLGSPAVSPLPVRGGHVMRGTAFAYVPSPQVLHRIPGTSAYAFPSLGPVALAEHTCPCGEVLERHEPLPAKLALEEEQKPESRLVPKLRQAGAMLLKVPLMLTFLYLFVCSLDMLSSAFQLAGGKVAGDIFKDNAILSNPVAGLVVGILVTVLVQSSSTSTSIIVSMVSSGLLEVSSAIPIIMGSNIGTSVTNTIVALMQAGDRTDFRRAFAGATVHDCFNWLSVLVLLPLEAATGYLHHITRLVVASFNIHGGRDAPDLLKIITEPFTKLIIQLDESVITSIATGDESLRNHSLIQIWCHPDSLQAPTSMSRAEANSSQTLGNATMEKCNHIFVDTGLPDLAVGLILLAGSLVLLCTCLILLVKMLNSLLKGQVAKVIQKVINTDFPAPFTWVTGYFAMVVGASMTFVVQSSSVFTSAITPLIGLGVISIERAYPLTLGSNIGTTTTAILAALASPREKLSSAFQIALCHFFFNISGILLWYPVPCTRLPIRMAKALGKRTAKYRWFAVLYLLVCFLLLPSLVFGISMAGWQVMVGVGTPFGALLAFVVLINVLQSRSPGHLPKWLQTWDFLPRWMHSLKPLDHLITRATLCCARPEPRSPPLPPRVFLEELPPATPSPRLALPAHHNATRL
Procedure, shortened: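 Doxycycline-induced (0.5 μg/mL, 24 h) CHO T-REx cells were loaded with membrane potential dye in sodium-free NHE buffer (pH 7.4) and exposed to compound (50 μM–1 nM, 5 min, room temperature).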

Row | Compound | IC50
1 | Cc1cc(C)n(-c2cc(Nc3c(C)c(-c4ccc(F)cc4)nn3C)ncn2)n1 [Example 71, 6-(3,5-dimethyl-1H-pyrazol-1-yl)-N-[3-(4-fluorophenyl)-1,4-dimethyl-1H-pyrazol-5-yl]pyrimidin-4-amine] | 50 nM
2 | CCc1c(Nc2cc(-n3nc(C)c4c3CCC4=O)ncn2)nn(C)c1-c1ccc(F)cc1 [Example 273, 1-(6-{[4-ethyl-5-(4-fluorophenyl)-1-methyl-1H-pyrazol-3-yl]amino}pyrimidin-4-yl)-3-methyl-5,6-dihydrocyclopenta[c]pyrazol-4(1H)-one] | 120 nM
3 | CCOC(=O)c1c(C)nn(-c2cc(Nc3c(C)c(-c4ccc(F)cc4)nn3CCOC)ncn2)c1C [Example 528, ethyl 1-(6-{[3-(4-fluorophenyl)-1-(2-methoxyethyl)-4-methyl-1H-pyrazol-5-yl]amino}pyrimidin-4-yl)-3,5-dimethyl-1H-pyrazole-4-carboxylate] | 4 nM
4 | CCOC(=O)c1c(C)nn(-c2cc(Nc3c(CC)c(-c4ccc(F)cc4)nn3CC(F)F)ncn2)c1C [Example 180, ethyl 1-(6-{[1-(2,2-difluoroethyl)-4-ethyl-3-(4-fluorophenyl)-1H-pyrazol-5-yl]amino}pyrimidin-4-yl)-3,5-dimethyl-1H-pyrazole-4-carboxylate] | 47 nM
5 | Cc1nn(-c2cc(Nc3c(C)c(-c4ccc(F)cc4)nn3CC3CC3)ncn2)c(C)c1CO [Example 282, [1-(6-{[1-(cyclopropylmethyl)-3-(4-fluorophenyl)-4-methyl-1H-pyrazol-5-yl]amino}pyrimidin-4-yl)-3,5-dimethyl-1H-pyrazol-4-yl]methanol] | 73 nM
6 | Cc1nn(-c2cc(Nc3c(C)c(-c4ccc(C#N)cc4)nn3CC3CC3)ncn2)c(C)c1F [Example 268, 4-[1-(cyclopropylmethyl)-5-{[6-(4-fluoro-3,5-dimethyl-1H-pyrazol-1-yl)pyrimidin-4-yl]amino}-4-methyl-1H-pyrazol-3-yl]benzonitrile] | 8 nM
7 | Cc1cc(C)n(-c2cc(Nc3c(C)c(-c4ccc(C(F)(F)F)nc4)nn3C)ncn2)n1 [Example 549, 6-(3,5-dimethyl-H-pyrazol-1-yl)-N-{1,4-dimethyl-3-[6-(trifluoromethyl)pyridin-3-yl]-1H-pyrazol-5-yl}pyrimidin-4-amine] | 2600 nM
8 | COc1c(-c2ccc(F)cc2)nn(C)c1Nc1cc(-n2nc(C)cc2C)ncn1 [Example 254, 6-(3,5-dimethyl-1H-pyrazol-1-yl)-N-[3-(4-fluorophenyl)-4-methoxy-1-methyl-1H-pyrazol-5-yl]pyrimidin-4-amine] | 150 nM
9 | Cc1cc(C)n(-c2cc(Nc3c(C)c(-c4ccc(C#N)cc4)nn3CCC3CC3)ncn2)n1 [Example 198, 4-[1-(2-cyclopropylethyl)-5-{[6-(3,5-dimethyl-1H-pyrazol-1-yl)pyrimidin-4-yl]amino}-4-methyl-1H-pyrazol-3-yl]benzonitrile] | 12 nM
10 | Cc1nn(-c2cc(Nc3c(C)c(-c4ccc(F)cc4)nn3CC3CC3)ncn2)c(C)c1C(O)(C(F)(F)F)C(F)(F)F [Example 295, 2-[1-(6-{[1-(cyclopropylmethyl)-3-(4-fluorophenyl)-4-methyl-1H-pyrazol-5-yl]amino}pyrimidin-4-yl)-3,5-dimethyl-1H-pyrazol-4-yl]-1,1,1,3,3,3-hexafluoropropan-2-ol] | 13 nM
11 | Cc1nn(-c2cc(Nc3c(C)c(-c4ccc(C#N)cc4)nn3CC3CC3)ncn2)c2c1C(=O)CC2 [Example 365, 4-[1-(cyclopropylmethyl)-4-methyl-5-{[6-(3-methyl-4-oxo-5,6-dihydrocyclopenta[c]pyrazol-1(4H)-yl)pyrimidin-4-yl]amino}-1H-pyrazol-3-yl]benzonitrile] | 61 nM
12 | Cc1nn(-c2cc(Nc3c(C)c(-c4ccc(C#N)cc4)nn3C)ncn2)c2c1C(=O)CC2 [Example 211, 4-(1,4-dimethyl-5-{[6-(3-methyl-4-oxo-5,6-dihydrocyclopenta[c]pyrazol-1(4H)-yl)pyrimidin-4-yl]amino}-1H-pyrazol-3-yl)benzonitrile] | 200 nM
13 | CCc1c(Nc2cc(-n3nc(C)cc3C)ncn2)n[nH]c1C1CCCCC1 [Example 28, N-(5-cyclohexyl-4-ethyl-1H-pyrazol-3-yl)-6-(3,5-dimethyl-1H-pyrazol-1-yl)pyrimidin-4-amine] | 490 nM
14 | Cc1cc(C(F)F)n(-c2cc(Nc3c(C)c(-c4ccc(OC(F)F)cc4)nn3CC3CC3)ncn2)n1 [Example 475, N-{1-(cyclopropylmethyl)-3-[4-(difluoromethoxy)phenyl]-4-methyl-1H-pyrazol-5-yl}-6-[5-(difluoromethyl)-3-methyl-1H-pyrazol-1-yl]pyrimidin-4-amine] | 215 nM
15 | COc1c(C)nn(-c2cc(Nc3nn(C)c(-c4ccc(C#N)cc4)c3C)ncn2)c1C [Example 435, 4-(3-{[6-(4-methoxy-3,5-dimethyl-1H-pyrazol-1-yl)pyrimidin-4-yl]amino}-1,4-dimethyl-1H-pyrazol-5-yl)benzonitrile] | 5 nM
16 | Cc1c(-c2ccc(C#N)cc2)nn(C)c1Nc1cc(-n2[nH]c3c(c2=O)CCCC3)ncn1 [Example 472, 4-(1,4-dimethyl-5-{[6-(3-oxo-1,3,4,5,6,7-hexahydro-2H-indazol-2-yl)pyrimidin-4-yl]amino}-1H-pyrazol-3-yl)benzonitrile] | 880 nM
17 | CCOC(=O)c1c(C)nn(-c2cc(Nc3nn(C)c(-c4ccc(F)cc4)c3CC)ncn2)c1C [Example 40, ethyl 1-(6-{[4-ethyl-5-(4-fluorophenyl)-1-methyl-1H-pyrazol-3-yl]amino}pyrimidin-4-yl)-3,5-dimethyl-1H-pyrazole-4-carboxylate] | 2760 nM
18 | Cc1cc(C)n(-c2cc(Nc3nn(C)c(-c4ccc(F)cc4)c3C#N)ncn2)n1 [Example 23, 3-{[6-(3,5-dimethyl-1H-pyrazol-1-yl)pyrimidin-4-yl]amino}-5-(4-fluorophenyl)-1-methyl-1H-pyrazole-4-carbonitrile] | 315 nM
19 | CCc1c(-c2ccc(C#N)cc2)nn(CC2CC2)c1Nc1cc(-n2nc(C)c(Cl)c2C(F)F)ncn1 [Example 164, 4-[5-({6-[4-chloro-5-(difluoromethyl)-3-methyl-1H-pyrazol-1-yl]pyrimidin-4-yl}amino)-1-(cyclopropylmethyl)-4-ethyl-1H-pyrazol-3-yl]benzonitrile] | 11 nM
20 | Cc1cc(C)n(-c2cc(Nc3nn(C)c(-c4ccc(F)cc4)c3OC(F)F)ncn2)n1 [Example 400, N-[4-(difluoromethoxy)-5-(4-fluorophenyl)-1-methyl-1H-pyrazol-3-yl]-6-(3,5-dimethyl-1H-pyrazol-1-yl)pyrimidin-4-amine] | 6 nM
21 | Cc1cc(C)n(-c2cc(Nc3c(Cl)c(-c4ccc(C#N)cc4)nn3CC3CC3)ncn2)n1 [Example 441, 4-[4-chloro-1-(cyclopropylmethyl)-5-{[6-(3,5-dimethyl-1H-pyrazol-1-yl)pyrimidin-4-yl]amino}-1H-pyrazol-3-yl]benzonitrile] | 21 nM
22 | Cc1cc(C(F)F)n(-c2cc(Nc3nn(C)c(-c4ccc(C(F)(F)F)nc4)c3C)ncn2)n1 [Example 552, 6-[5-(difluoromethyl)-3-methyl-1H-pyrazol-1-yl]-N-{1,4-dimethyl-5-[6-(trifluoromethyl)pyridin-3-yl]-1H-pyrazol-3-yl}pyrimidin-4-amine] | 15 nM
23 | COc1c(-c2ccc(C#N)cc2)nn(CC2CC2)c1Nc1cc(-n2nc(C)c(C(C)O)c2C)ncn1 (single isomer, unassigned) [Example 332, 4-{1-(cyclopropylmethyl)-5-[(6-{4-[1-hydroxyethyl]-3,5-dimethyl-1H-pyrazol-1-yl}pyrimidin-4-yl)amino]-4-methoxy-1H-pyrazol-3-yl}benzonitrile] | 1900 nM
24 | Cc1cc(C)n(-c2cc(Nc3[nH]nc(-c4ccccc4)c3C)ncn2)n1 [Example 10, 6-(3,5-dimethyl-1H-pyrazol-1-yl)-N-(4-methyl-3-phenyl-1H-pyrazol-5-yl)pyrimidin-4-amine] | 33.7 nM
25 | Cc1cc(C)n(-c2cc(Nc3c(C)c(-c4ccc(C#N)cc4)nn3CC(F)F)ncn2)n1 [Example 248, 4-[1-(2,2-difluoroethyl)-5-{[6-(3,5-dimethyl-1H-pyrazol-1-yl)pyrimidin-4-yl]amino}-4-methyl-1H-pyrazol-3-yl]benzonitrile] | 182 nM
26 | Cc1nn(-c2cc(Nc3[nH]nc(-c4ccc(F)cc4)c3C3CC3)ncn2)c(C)c1Cl [Example 8, 6-(4-chloro-3,5-dimethyl-1H-pyrazol-1-yl)-N-[4-cyclopropyl-3-(4-fluorophenyl)-1H-pyrazol-5-yl]pyrimidin-4-amine] | 38 nM
27 | Cc1nn(-c2cc(Nc3c(Cl)c(-c4ccc(F)cc4F)nn3C)ncn2)c(C)c1Cl [Example 48, N-[4-chloro-3-(2,4-difluorophenyl)-1-methyl-1H-pyrazol-5-yl]-6-(4-chloro-3,5-dimethyl-1H-pyrazol-1-yl)pyrimidin-4-amine] | 310 nM
28 | CCOC(=O)c1c(C)nn(-c2cc(Nc3c(C)c(-c4ccc(F)cc4)nn3C)ncn2)c1C [Example 59, ethyl 1-(6-{[3-(4-fluorophenyl)-1,4-dimethyl-1H-pyrazol-5-yl]amino}pyrimidin-4-yl)-3,5-dimethyl-1H-pyrazole-4-carboxylate] | 12 nM
